Test results published in patent US4695545A, “Culture and process for producing A41030 antibiotics” (Eli Lilly and Company, priority 1984, dated 1987).

Experiments:
[1] = system: Bacteroides melaninogenicus; assay: MIC anaerobic bacteria, agar-dilution; type: cell-based; details: Bacteroides melaninogenicus 2736
Solubility in solvents = type: physicochemical; details: qualitative
Source text: As many as seven antibiotic factors are recovered from the fermentation and are obtained as a mixture, the A41030 complex. It will be recognized that the ratio of the factors in the A41030 complex will vary, depending upon the fermentation conditions used. The individual factors A, B, C, D, E, F, and G are separated and isolated as individual compounds, as hereinafter described.

Clostridium septicum = assay: MIC anaerobic bacteria, agar-dilution; type: cell-based; details: Clostridium septicum 1128
Bacteroides corrodens = assay: MIC anaerobic bacteria, agar-dilution; type: cell-based; details: Bacteroides corrodens 1874
Peptococcus prevoti = assay: MIC anaerobic bacteria, agar-dilution; type: cell-based; details: Peptococcus prevoti 1281
Streptococcus pneumoniae = assay: MIC aerobic bacteria, standard agar-dilution assay; type: cell-based; details: Streptococcus pneumoniae Park I, 24 hours
Haemophilus influenzae = assay: MIC aerobic bacteria, standard agar-dilution assay; type: cell-based
[2] = Electrometric titration (pKa); type: physicochemical; details: electrometric titration in 66% dimethylformamide in water; stated as possible
Source text: Antibiotic A41030 factor A is a white, crystalline solid.

[3] = system: Staphylococcus epidermidis; assay: MIC aerobic bacteria, standard agar-dilution assay; type: cell-based; details: Staphylococcus epidermidis EPI1, 24 hours
Bacteroides fragilis = assay: MIC anaerobic bacteria, agar-dilution; type: cell-based
Propionibacterium acnes = assay: MIC anaerobic bacteria, agar-dilution; type: cell-based; details: Propionibacterium acnes 79; agar-dilution (Table 9)
[4] = system: Peptostreptococcus intermedius; assay: MIC anaerobic bacteria, agar-dilution; type: cell-based; details: Peptostreptococcus intermedius 1264
Staphylococcus aureus = assay: MIC aerobic bacteria, standard agar-dilution assay; type: cell-based; details: Staphylococcus aureus S13E; agar-dilution, 24 hours
Fusobacterium symbiosum = assay: MIC anaerobic bacteria, agar-dilution; type: cell-based; details: Fusobacterium symbiosum 1470
Bacteroides vulgatis = assay: MIC anaerobic bacteria, agar-dilution; type: cell-based; details: Bacteroides vulgatis 1211
[5] = system: Fusobacterium necrophorum; assay: MIC anaerobic bacteria, agar-dilution; type: cell-based; details: Fusobacterium necrophorum 6054A
[6] = system: Streptococcus sp. Group D; assay: MIC aerobic bacteria, standard agar-dilution assay; type: cell-based
[7] = system: Bacteroides thetaiotaomicron; assay: MIC anaerobic bacteria, agar-dilution; type: cell-based; details: Bacteroides thetaiotaomicron 1438
Clostridium difficile [8] = assay: MIC anaerobic bacteria, agar-dilution; type: cell-based; details: Clostridium difficile 2994; agar-dilution (Table 9)
[9] = system: Peptostreptococcus anaerobius; assay: MIC anaerobic bacteria, agar-dilution; type: cell-based; details: Peptostreptococcus anaerobius 1428
[10] = system: Peptococcus asaccharolyticus; assay: MIC anaerobic bacteria, agar-dilution; type: cell-based; details: Peptococcus asaccharolyticus 1302
Eubacterium aerofaciens = assay: MIC anaerobic bacteria, agar-dilution; type: cell-based; details: Eubacterium aerofaciens 1235
Streptococcus pyogenes = assay: MIC aerobic bacteria, standard agar-dilution assay; type: cell-based; details: Streptococcus pyogenes C203, 24 hours
Clostridium difficile [11] = assay: MIC against Clostridium difficile strains, agar-dilution; type: cell-based
Source text: The A41030 antibiotic factors A, B, C, D, E, F, and G, are also active against a number of strains of Clostridium difficile, as determined by the agardilution method.

Clostridium perfringens = type: cell-based; details: Clostridium perfringens 81; agar-dilution
[12] = Haemophilus influenzae 76, 24 hours
[13] = Haemophilus influenzae C.L., 24 hours
[14] = Streptococcus sp. Group D 9960, 24 hours
[15] = Streptococcus sp. Group D X66, 24 hours

Substance: A41030 factor E
- MIC [1]: 32 µg/mL
- solubility (solvents) (Solubility in solvents): soluble in the same solvents as factor A
- MIC (Clostridium septicum): 0.5 µg/mL
- MIC (Bacteroides corrodens): 64 µg/mL
- MIC (Peptococcus prevoti): 32 µg/mL
- MIC (Streptococcus pneumoniae): 0.25 µg/mL
- MIC (Haemophilus influenzae; [12]): 8 µg/mL
- MIC (Haemophilus influenzae; [13]): 8 µg/mL
- possibly additional pKa's [2]: > 10
- MIC [3]: 0.25 µg/mL
- MIC (Bacteroides fragilis; Bacteroides fragilis 111): 64 µg/mL
- MIC (Bacteroides fragilis; Bacteroides fragilis 1877): 32 µg/mL
- MIC (Bacteroides fragilis; Bacteroides fragilis 1936B): 64 µg/mL
- MIC (Propionibacterium acnes): 0.5 µg/mL
- MIC [4]: 32 µg/mL
- MIC (Staphylococcus aureus): 0.25 µg/mL
- MIC (Fusobacterium symbiosum): 1.0 µg/mL
- MIC (Bacteroides vulgatis): 32 µg/mL
- MIC [5]: 0.5 µg/mL
- MIC [6, 14]: 1 µg/mL
- MIC [6, 15]: 1 µg/mL
- MIC [7]: 64 µg/mL
- MIC (Clostridium difficile [8]): 0.5 µg/mL
- MIC [9]: 32 µg/mL
- MIC [10]: ≤ 0.25 µg/mL
- MIC (Eubacterium aerofaciens): 0.5 µg/mL
- MIC (Streptococcus pyogenes): 0.25 µg/mL
- MIC (Clostridium difficile [11]; Clostridium difficile 78): 0.5 µg/mL
- MIC (Clostridium difficile [11]; Clostridium difficile 107B): 0.5 µg/mL
- MIC (Clostridium difficile [11]; Clostridium difficile 111F): 0.5 µg/mL
- MIC (Clostridium difficile [11]; Clostridium difficile 1153): 1.0 µg/mL
- MIC (Clostridium difficile [11]; Clostridium difficile 2634): 1.0 µg/mL
- MIC (Clostridium difficile [11]; Clostridium difficile 3424-5B): 0.5 µg/mL
- MIC (Clostridium difficile [11]; Clostridium difficile 3816): 0.5 µg/mL
- MIC (Clostridium difficile [11]; Clostridium difficile 3950D): 0.5 µg/mL
- MIC (Clostridium difficile [11]; Clostridium difficile 6890): 0.5 µg/mL
- MIC (Clostridium difficile [11]; Clostridium difficile 8484): 0.5 µg/mL
- MIC (Clostridium difficile [11]; Clostridium difficile A-194): 0.5 µg/mL
- MIC (Clostridium difficile [11]; Clostridium difficile A-195): 0.5 µg/mL
- MIC (Clostridium difficile [11]; Clostridium difficile A-196): 1.0 µg/mL
- MIC (Clostridium difficile [11]; Clostridium difficile A-279): 0.5 µg/mL
- MIC (Clostridium difficile [11]; Clostridium difficile A-280): 0.5 µg/mL
- MIC (Clostridium difficile [11]; Clostridium difficile A-281): 1.0 µg/mL
- MIC (Clostridium difficile [11]; Clostridium difficile WAL-2112): 0.5 µg/mL
- MIC (Clostridium difficile [11]; Clostridium difficile WAL-3657): 0.5 µg/mL
- MIC (Clostridium difficile [11]; Clostridium difficile WAL-4268): 0.5 µg/mL
- MIC (Clostridium perfringens): 1.0 µg/mL

Substance: A41030 factor F
- MIC [1]: 1.0 µg/mL
- solubility (solvents) (Solubility in solvents): soluble in the same solvents as factor A
- MIC (Clostridium septicum): 1.0 µg/mL
- MIC (Bacteroides corrodens): 32 µg/mL
- MIC (Peptococcus prevoti): 32 µg/mL
- MIC (Streptococcus pneumoniae): 2 µg/mL
- MIC (Haemophilus influenzae; [12]): 32 µg/mL
- MIC (Haemophilus influenzae; [13]): 32 µg/mL
- possibly additional pKa's [2]: > 10
- MIC [3]: 0.25 µg/mL
- MIC (Bacteroides fragilis; Bacteroides fragilis 111): 32 µg/mL
- MIC (Bacteroides fragilis; Bacteroides fragilis 1877): 32 µg/mL
- MIC (Bacteroides fragilis; Bacteroides fragilis 1936B): 32 µg/mL
- MIC (Propionibacterium acnes): 1.0 µg/mL
- MIC [4]: 1.0 µg/mL
- MIC (Staphylococcus aureus): 1 µg/mL
- MIC (Fusobacterium symbiosum): 1.0 µg/mL
- MIC (Bacteroides vulgatis): 32 µg/mL
- MIC [5]: 1.0 µg/mL
- MIC [6, 14]: 4 µg/mL
- MIC [6, 15]: 4 µg/mL
- MIC [7]: 64 µg/mL
- MIC (Clostridium difficile [8]): 1.0 µg/mL
- MIC [9]: 32 µg/mL
- MIC [10]: ≤ 0.25 µg/mL
- MIC (Eubacterium aerofaciens): 1.0 µg/mL
- MIC (Streptococcus pyogenes): 2 µg/mL
- MIC (Clostridium difficile [11]; Clostridium difficile 78): 1.0 µg/mL
- MIC (Clostridium difficile [11]; Clostridium difficile 107B): 1.0 µg/mL
- MIC (Clostridium difficile [11]; Clostridium difficile 111F): 2 µg/mL
- MIC (Clostridium difficile [11]; Clostridium difficile 1153): 2 µg/mL
- MIC (Clostridium difficile [11]; Clostridium difficile 2634): 2 µg/mL
- MIC (Clostridium difficile [11]; Clostridium difficile 3424-5B): 1.0 µg/mL
- MIC (Clostridium difficile [11]; Clostridium difficile 3816): 1.0 µg/mL
- MIC (Clostridium difficile [11]; Clostridium difficile 3950D): 1.0 µg/mL
- MIC (Clostridium difficile [11]; Clostridium difficile 6890): 1.0 µg/mL
- MIC (Clostridium difficile [11]; Clostridium difficile 8484): 1.0 µg/mL
- MIC (Clostridium difficile [11]; Clostridium difficile A-194): 1.0 µg/mL
- MIC (Clostridium difficile [11]; Clostridium difficile A-195): 1.0 µg/mL
- MIC (Clostridium difficile [11]; Clostridium difficile A-196): 2 µg/mL
- MIC (Clostridium difficile [11]; Clostridium difficile A-279): 1.0 µg/mL
- MIC (Clostridium difficile [11]; Clostridium difficile A-280): 1.0 µg/mL
- MIC (Clostridium difficile [11]; Clostridium difficile A-281): 2 µg/mL
- MIC (Clostridium difficile [11]; Clostridium difficile WAL-2112): 1.0 µg/mL
- MIC (Clostridium difficile [11]; Clostridium difficile WAL-3657): 1.0 µg/mL
- MIC (Clostridium difficile [11]; Clostridium difficile WAL-4268): 1.0 µg/mL
- MIC (Clostridium perfringens): 1.0 µg/mL
